# Laboratory results published in US8293729B2 (Boehringer Ingelheim International GmbH, priority 2009, dated 2012).
# Like-named read-outs stand apart in the source and are kept apart here.
# Target: T1, human GPR119 receptor (Homo sapiens, UniProt Q8TDV5, S329A/T327A)
# T1 construct: N-terminal leader […]; expressed in transfected cells
# T1 sequence (Q8TDV5 with tags, fused parts or gaps T327A/S329A): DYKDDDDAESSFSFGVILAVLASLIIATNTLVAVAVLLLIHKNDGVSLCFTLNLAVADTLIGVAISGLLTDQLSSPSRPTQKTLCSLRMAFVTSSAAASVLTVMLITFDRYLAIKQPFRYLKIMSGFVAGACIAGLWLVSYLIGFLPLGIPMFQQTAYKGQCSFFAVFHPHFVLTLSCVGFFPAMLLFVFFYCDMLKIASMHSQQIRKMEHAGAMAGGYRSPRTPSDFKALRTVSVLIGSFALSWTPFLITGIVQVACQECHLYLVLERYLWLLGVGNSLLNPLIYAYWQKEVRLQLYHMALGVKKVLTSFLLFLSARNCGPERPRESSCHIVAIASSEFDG
# Assay: cAMP assay (LANCE cAMP-384) in HEK293 cells stably expressing mutant human GPR119 receptor
# Type: cell-based
# Details: for EC50: read-out: EC50
# Experimental: Quantitative detection of cAMP accumulation from cells expressing human GPR119 receptor was achieved using Perkin Elmer's LANCE cAMP-384 Kit (Cat#AD0264) according to the manufacturer's protocol. Briefly, HEK293 cells stably expressing a mutant form of the human GPR119 receptor (Methionine 1 replaced with the amino acid sequence […] (SEQ ID NO: 1), and T327 & S329 changed to alanines) were grown to 50-70% confluency in cell culture media (DMEM, 10% heat inactivated Fetal Bovine Serum, 50 I.U./mL penicillin, 50 μg/mL streptomycin, 10 mM HEPES, 20 μg/mL G418 Sulfate). On the day of the assay, GPR119 stable HEK293 cells were lifted from the tissue culture plate and 1000 cells/well were incubated along with various concentrations of test compounds for 20 min at 37° C. Detection Buffer (50mM HEPES, 10mM calcium chloride, 0.35% Triton X-100, 1 mg/mL BSA) containing cAMP-specific antibody was then added to all wells and allowed to equilibrate in the dark for 10 minutes at room temperature. Upon equilibration, Detection Buffer containing europium-labeled cAMP tracer complex was added to all wells and allowed to react for 1 hour at room temperature. After 1 hour, bound europium-labeled cAMP tracer was measured using a Perkin Elmer ViewLux. The quantity of cAMP generated in each well was derived from a standard curve. EC50 was determined using nonlinear regression analysis of the cAMP values over a range of agonist concentration (12 points spanning the range from 30 μM to 100pM).
# For some compounds for which no EC50 value could be determined, the efficacy is provided at a single concentration (10 μM) yielding % stimulation values.
# [1] = cAMP accumulation, HEK293 cells stably expressing mutant human GPR119
structure (smiles),measurement,setting,value
"CC(C)OC(=O)N1CCC(ON=C2CCN(c3ccc(CO)c(F)c3)CC2)CC1 [Example 52-1, 4-[1-(3-Fluoro-4-hydroxymethyl-phenyl)-piperidin-4-ylideneaminooxy]-piperidine-1-carboxylic acid isopropyl ester]",EC50,the 29th table,> 10000 nM
CC(=O)NCc1cc(F)c(N2CCC(=NOC3CCN(C(=O)OC(C)C)CC3)CC2)cc1F [Example 16-2],EC50,[1],141 nM
CCCc1ccc(CN2CCC(ON=C3CCN(c4cc(F)c(C(=O)NC)cc4F)CC3)CC2)cc1 [Example 66-72],EC50,"the 38th table, compounds 66-65 to 66-72",109 nM
Cc1ccn(Cc2cc(F)c(N3CCC(=NOC4CCN(C(=O)OC(C)C)CC4)CC3)cc2F)n1 [Example 14-9],EC50,[1],257 nM
Cc1c(Cl)ncnc1N1CCC(=NOC2CCN(C(=O)OC(C)C)CC2)CC1 [Example 2-52],EC50,[1],653 nM
CC1(COC(=O)N2CCC(ON=C3CCN(c4ccc(S(C)(=O)=O)cc4F)CC3)CC2)CC1 [Example 64-7],EC50,the 33rd table,67 nM
"CC(C)OC(=O)N1CCC(ON=C2CCN(c3cc(F)c(NC(=N)N)cc3F)CC2)CC1 [Example 36-1, 4-[1-(2,5-Difluoro-4-guanidino-phenyl)-piperidin-4-ylideneaminooxy]-piperidine-1-carboxylic acid isopropyl ester]",EC50,[1],1320 nM
C#CCOC(=O)N1CCC(ON=C2CCN(c3ccc(S(C)(=O)=O)cc3F)CC2)CC1 [Example 64-3],EC50,the 33rd table,446 nM
Cc1nnn(Cc2cc(F)c(N3CCC(=NOC4CCN(C(=O)OC(C)C)CC4)CC3)cc2F)n1 [Example 14-16],EC50,[1],256 nM
CC(C)OC(=O)N1CCC(ON=C2CCN(c3cc(F)c(C(=O)NCCO)cc3F)CC2)CC1 [Example 29-11],EC50,the 15th table,84 nM
CC(C)OC(=O)N1CCC(ON=C2CCN(c3ncc(Cn4ccnn4)cc3F)CC2)CC1 [Example 54-2],EC50,the 30th table,1060 nM
CCOC(=O)C1CC1COC(=O)N1CCC(ON=C2CCN(c3ccc(S(C)(=O)=O)cc3F)CC2)CC1 (stereo not shown) [Example 64-31],EC50,the 33rd table,107 nM
Cc1cc(CN2CCC(ON=C3CCN(c4ccc(S(C)(=O)=O)cc4F)CC3)CC2)oc1C [Example 66-34],activation at 10 µM,"HEK293, 20 min, at 10 μM, printed in EC50 column of the 36th table, read-out: stimulation in % at 10 μM",75%
CC(C)OC(=O)N1CCC(ON=C2CCN(c3cc(F)c(C(=O)N4CCC[C@@H]4CN)cc3F)CC2)CC1 [Example 29-50],EC50,the 15th table,133 nM
CS(=O)(=O)c1ccc(N2CCC(=NOC3CCN(c4nccc(C(F)(F)F)n4)CC3)CC2)c(F)c1 [Example 63-11],EC50,the 32nd table,> 10000 nM
CS(=O)(=O)c1ccc(N2CCC(=NOC3CCN(c4ccncc4)CC3)CC2)c(F)c1 [Example 63-4],EC50,the 32nd table,> 10000 nM
CC(C)OC(=O)N1CCC(ON=C2CCN(c3nccc(N(C)C)n3)CC2)CC1 [Example 2-44],EC50,[1],> 10000 nM
CCC(CC)COC(=O)N1CCC(ON=C2CCN(c3ccc(S(C)(=O)=O)cc3F)CC2)CC1 [Example 64-49],EC50,the 33rd table,54 nM
CC(C)OC(=O)N1CCC(ON=C2CCN(c3cc(Cl)c(F)cc3C(=O)O)CC2)CC1 [Example 2-21],EC50,[1],> 10000 nM
CC(C)OC(=O)N1CCC(ON=C2CCN(c3ncnc(F)c3F)CC2)CC1 [Example 2-58],EC50,[1],603 nM
CC(C)OC(=O)N1CCC(ON=C2CCN(c3nc(Cl)ccc3CO)CC2)CC1 [Example 2-27],EC50,[1],> 10000 nM
"CC(C)OC(=O)N1CCC(ON=C2CCN(c3cc(F)c(-c4cccs4)cc3F)CC2)CC1 [Example 27-1, 4-[1-(2,5-Difluoro-4-thiophen-2-yl-phenyl)-piperidin-4-ylideneaminooxy]-piperidine-1-carboxylic acid isopropyl ester]",EC50,[1],201 nM
CC(C)OC(=O)N1CCC(ON=C2CCN(c3cc(F)c(CC(=O)N4CCC(CN)CC4)cc3F)CC2)CC1 [Example 75-9],EC50,"the 43rd table, compounds 75-1 to 75-38",144 nM
CC(C)OC(=O)N1CCC(ON=C2CCN(c3cc(F)c(C(=O)N4CCC(CN5CCCC5)CC4)cc3F)CC2)CC1 [Example 29-48],EC50,the 15th table,69 nM
"CC(C)OC(=O)N1CCC(ON=C2CCN(c3cc(F)c(CO)cc3F)CC2)CC1 [Example 48-1, 4-[1-(2,5-Difluoro-4-hydroxymethyl-phenyl)-piperidin-4-ylideneaminooxy]-piperidine-1-carboxylic acid isopropyl ester]",EC50,the 27th table,9 nM
